This is an account of results in patent publication US20160015700A1, “4-CYANO-N-(2-(4,4-DIMETHYLCYCLOHEX-1-EN-1-YL)-6-(2,2,6,6-TETRAMETHYLTETRAHYDRO-2H-PYRAN-4-YL)PYRIDIN-3-YL)-1H-IMIDAZOLE-2-CARBOXAMIDE FOR THE TREATMENT OF HODGKIN'S LYMPHOMA” (JANSSEN PHARMACEUTICA NV, priority 2013, published 2016).

The experiment relates to classical Hodgkin's Lymphoma patient. The experiment in a line: Case study: treatment of a classical Hodgkin's Lymphoma patient, response by CT/MRI scan and PET scan (Cheson criteria). In kind it is in vivo, human. As to conditions: 150 mg orally 1 time a day, Cheson 2007 criteria. The method, then: A classical Hodgkin's Lymphoma patient, diagnosed with Stage II in Hodgkin Lymphoma in January 2006, and previously treated with radiotherapy and three different regimens of chemotherapy, including an autologous stem cell transplantation was treated with 150 mg of the compound of formula (I), administered orally 1 time a day. In addition to the compound of formula (I), the patient was taking the following medications and dosages: (a) DEKRISTOL (cholecalciferol), 20000 I.U. QOD for vitamin deficiency, (b) methylphenidate hydrochloride, 20 mg DAILY for fatigue, (c) ibuprofen, 600 mg PRN for back pain, and (d) VALORON N (tilidine) 50 IN 20 DROPS PRN for back pain.
Response to treatment was evaluated by tumor assessments using CT/MRI scan and PET scan, resulting in an individual response for each technique. In addition, an overall response evaluation was completed, taking into account both scan results. Response evaluations were completed according to the criteria as set forth in CHESON, B. D., et al., J. Clin. Oncology, 2007, pp579-586, Vol. 25(5).

Regarding `CC1(C)CC=C(c2nc(C3CC(C)(C)OC(C)(C)C3)ccc2NC(=O)c2nc(C#N)c[nH]2)CC1` [compound of formula (I), 4-cyano-N-(2-(4,4-dimethylcyclohex-1-en-1-yl)-6-(2,2,6,6-tetramethyltetrahydro-2H-pyran-4-yl)pyridin-3-yl)-1H-imidazole-2-carboxamide], the “response status at later follow-up” value (as of 13 Mar. 2013) is given as “still in complete response”. The “overall response to treatment” value (evaluated after 121 days of treatment, previously treated classical Hodgkin's Lymphoma patient) is “complete response to treatment”.
